Results: patent publication EP0126287B1, “Fluorinated compounds having analgesic and antiinflammatory activities” (MEDEA RESEARCH S.r.l., priority 1983, dated 1984)
Read-outs that look alike come from different tables or passages of the source.

Assays:
[1] = tested on: writhing induced by acetic acid in the rat; assay: Inhibition of writhing induced by acetic acid, analgesic ED50; format: in vivo; settings: po
Experimental: The ED50 in the analgesic activity of MR 883, in comparison to Diflunisal, D-prppoxyphene, phenylbutazone and acetylsalicylic acid was determined according to the test of inhibition of writhing induced by acetic acid in the rat (Sofia et al., J. Pharmacol. Expt. Therap. 186, 646, 1973).

[2] = tested on: writhing induced by phenylquinone administration in Swiss rats; assay: Phenylquinone writhing test, analgesic activity; format: in vivo; settings: for No. WRITHINGS M̄ ± ES: control 24.5 ±2.2
Experimental: The analgesic activity of the compounds of the invention was determined according to the writhing test, as inhibitory activity against the writhing induced by phenylquinone administration in Swiss rats (Siegmund et al., Proc. Soc. Exp. Biol. Med. 95, 729, 1957). The analgesic activity of MR 883 was determined in comparison to the one of Diflunisal and Naproxen.

[3] = tested on: carrageenin oedema in the rat paw; assay: Carrageenin oedema test (rat paw), antiinflammatory activity; format: in vivo; settings: for Inhibition versus control / AREAS % M ± ES: 50 mg/kg p.o., 10 rats per group; for Inhibition versus control: oedema areas; for AREAS % M ± ES: control 305 ±23.7; for ED50: Rattus norvegicus, carrageenin oedema, oral, groups of 10 rats, dosages of 25.50 and 100 mg/kg
Experimental: The antiinflammatory activity of the compounds of the invention was determined according to the carrageenin oedema test in rats, in comparison with equiponderal dosages of Diflunisal (Rissly, Ness.; Proc. Soc. Exp. Biol. Med., 111, 544-547, 1962).
ED50 of MR 883 and Diflunisal were determined according to the same test. Groups of 10 rats were administered orally with the compounds at dosages of 25.50 and 100 mg/kg.

rat = settings: cited from earlier work
[4] = Qualitative solubility of the isolated product; format: physicochemical; settings: for solubility in bicarbonate solutions: bicarbonate solution
[5] = Acute toxicology: indicative LD50 in the rat; settings: in vivo, ip
[6] = dose 50 mg/kg, 10 animals per group
[7] = acetic acid writhing in the rat, per os, read-out: ED50

## CC(=O)Oc1ccccc1C(=O)O [Acetylsalicylic acid]
[1]; Rattus norvegicus
  ED50: 330 mg/kg

## CCC(=O)O[C@](Cc1ccccc1)(c1ccccc1)[C@H](C)CN(C)C [D-propoxyphene]
[1]; Rattus norvegicus
  ED50: 40 mg/kg

## O=C(O)c1cc(-c2ccc(F)cc2F)ccc1O [Diflunisal, reference compound]
[2]; dose 50 mg/kg
  % Inhibition versus control: 82%
[2]; [6]
  No. WRITHINGS M̄ ± ES: 4.3 ±1.6
[3]
  Inhibition versus control: 59.6%
  AREAS % M ± ES: 123.3 ±10.1
  ED50: 234 mg/kg
[1]; [7]
  ED50: 45 mg/kg
rat
  LD50 p.o.: about 750 mg/kg

## O=C(O)C(O)c1ccc(-c2ccc(F)cc2F)cc1 (centres unmarked) [MR 864, 2-Hydroxy-2-[p-(2",4"-difluorophenyl)phenyl]acetic acid]
[2]; dose 50 mg/kg
  % Inhibition versus control: 85%
[2]; [6]
  No. WRITHINGS M̄ ± ES: 3.6 ±1.2
[4]; cyclohexane, petroleum ether
  solubility in cyclohexane and petroleum ether: soluble
[4]; toluene, chloroform, carbon tetrachloride
  solubility in toluene, chloroform, carbon tetrachloride: slightly soluble
[4]
  solubility in water: soluble
[3]
  Inhibition versus control: 42.7%
  AREAS % M ± ES: 174.7 ±20.7
[5]
  LD50: 850 mg/kg

## O=C(O)C(Cl)c1ccc(-c2ccc(F)cc2F)cc1 (centres unmarked) [MR 881, 2-Chloro-2-[p-(2",4"-difluorophenyl)phenyl]acetic acid]
[2]; dose 50 mg/kg
  % Inhibition versus control: 95%
[4]
  solubility in bicarbonate solutions: soluble
  solubility in the usual organic solvents: soluble
  solubility in water: insoluble
[3]
  Inhibition versus control: 48.6%
  AREAS % M ± ES: 156.8 ±13.1
[5]
  LD50: 850 mg/kg

## COC(C(=O)O)c1ccc(-c2ccc(F)cc2F)cc1 (centres unmarked) [MR 883, 2-Methoxy-2-[p-(2^1,4"-difluorophenyl)phenyl]acetic acid]
[2]; dose 50 mg/kg
  % Inhibition versus control: 98%
[4]
  solubility in the usual organic solvents: soluble
[3]
  Inhibition versus control: 52.8%
  AREAS % M ± ES: 144.0 ±17.5
  ED50: 145 mg/kg
[1]; [7]
  ED50: 25 mg/kg
[5]
  LD50: 2200 mg/kg

## CCOC(C(=O)O)c1ccc(-c2ccc(F)cc2F)cc1 (centres unmarked) [MR 936, 2-Ethoxy-2-[p-(2",4"-difluorophenyl)phenyl]acetic acid]
[2]; dose 50 mg/kg
  % Inhibition versus control: 76.7%
[2]; [6]
  No. WRITHINGS M̄ ± ES: 5.7 ±0.8
[4]
  solubility in bicarbonate solutions: soluble
  solubility in the usual organic solvents: soluble
[3]
  Inhibition versus control: 45.8%
  AREAS % M ± ES: 139.7 ±15.2
[5]
  LD50: 1800 mg/kg

## COc1ccc2cc([C@H](C)C(=O)O)ccc2c1 [Naproxen, reference compound]
[2]; dose 100 mg/kg
  % Inhibition versus control: 84%
[2]; dose 100 mg/kg, 10 animals
  No. WRITHINGS M̄ ± ES: 4.0 ±1.1

## CCCCC1C(=O)N(c2ccccc2)N(c2ccccc2)C1=O [Phenylbutazone]
[1]; [7]
  ED50: 180 mg/kg
